In ChEMBL document CHEMBL5528077, “Structure-Based Discovery of High-Affinity Small Molecule Ligands and Development of Tool Probes to Study the Role of Chitinase-3-Like Protein 1” (J Med Chem, 2024):

What was measured:
in vivo [1] = settings: BALB/c, mouse, iv, 3 mg/kg
in vivo [2] = settings: BALB/c, mouse, iv, 3 mg/kg; remark: listed apart in the source
in vivo [3] = settings: BALB/c, mouse, po, 10 mg/kg

CC(C)CN1C[C@H](Cc2ccc(Cl)cc2)N(C2CCN(c3ccccn3)CC2)C[C@@H]1C gave a Vd (in vivo [1]) of 9.25 L/kg, a clearance (in vivo [2]) of 69 mL/min/kg and a bioavailability (in vivo [3]) of 5.6%.

Cc1ccnc(N2CCC(N3C[C@H](C)OC[C@@H]3Cc3ccc(Cl)cc3)CC2)c1 gave a Vd (in vivo [1]) of 2.5 L/kg and a clearance (in vivo [2]) of 58 mL/min/kg.
